Reference: patent US20100056560A1, “USE FOR TREATING OBESITY AND DIABETES” (priority 2006, published 2010)

Test system: adiponectin
Assay: Expression of adiponectin in 3T3-L1 adipocytes (Western blot)
Format: cell-based, Mouse
Details: 3T3-L1, 100 μM isoflavone, 1 mM L-carnitine, 1 mM L-arginine, 100 ppm caffeine, 24 hours
Method: Mouse undifferentiated 3T3-L1 adipocytes) (purchased from ATCC) were cultured in 10% calf serum-containing DMEM (Dulbecco's modified Eagle's medium, Gibco 1210-0038) in a 10% CO2 incubator to a confluency of 70% while replacing the medium with a fresh medium at 2-day intervals. For differentiation into adipocytes, the cells were cultured in a medium (containing 10% fetal bovine serum, 0.5 mM 3-isobutyl-1-methyxanthine (Sigma), 1 μM dexamethasone (Sigma) and 167 nM insulin (Novo-Nordisk)) for 48 hours, and then the medium was replaced with a DMEM medium (containing 10% fetal bovine serum and 167 nM insulin), in which the cells were further cultured for 48 hours. Finally, the cells were further cultured in a medium (containing only 10% fetal bovine serum) for 48 hours, thus obtaining differentiated adipocytes.
The adipocytes, differentiated in the step 1, were cultured in a medium, containing 51 fatty acid-free calf serum, for 16 hours. On the next day, the cultured cells were washed three times with PBS, and then treated with each of 100 μM isoflavone, 1 mM L-carnitine, 1 mM L-arginine, 100 ppm caffeine and a mixture of 100 μM isoflavone+1 mM L-carnitine+1 mM L-arginine+100 ppm caffeine. After 24 hours of cell incubation, a protein was isolated from each of the media and subjected to Western blot analysis in order to examine a change in the expression of adiponectin.

In the case of `Cn1c(=O)c2c(ncn2C)n(C)c1=O` [caffeine], the expression of adiponectin is reported as “decrease in the expression of adiponectin”.
